We go through 30 compounds from ChEMBL document CHEMBL5370538, “Discovery of novel 6-p-tolyl-3-(3,4,5-trimethoxybenzyl)-7H-[1,2,4]triazolo[3,4-b][1,3,4]thiadiazine derivative as a potent tubulin inhibitor with promising in vivo antitumor activity” (Eur J Med Chem, 2023).

The test system of one series is HT-29. As to the kind of experiment: Antiproliferative activity against human HT-29 cells assessed as cell growth inhibition incubated for 48 hrs by MTT assay. The class given is functional, cell-based. Particulars: HT-29, 48 h. For orientation: Tetrazolium dyes change colour on reduction, which living cells bring about.
The next series concerns MDA-MB-231. Nature of the series: Antiproliferative activity against human MDA-MB-231 cells assessed as cell growth inhibition incubated for 48 hrs by MTT assay. The class given is functional, cell-based. Particulars: MDA-MB-231, 48 h.
A further series has as its system HeLa. Nature of the series: Antiproliferative activity against human HeLa cells assessed as cell growth inhibition incubated for 48 hrs by MTT assay. The class given is functional, cell-based.
A further series has as its system A549. Nature of the series: Antiproliferative activity against human A549 cells assessed as cell growth inhibition incubated for 48 hrs by MTT assay. The class given is functional, cell-based. Particulars: A549, 48 h.
Series [1] addresses T1, Tubulin (Homo sapiens) (UniProt P68371+Q9H4B7+P0DPH7+P68366+Q13509+Q71U36+P04350+Q3ZCM7+P07437+P68363+Q9BQE3+Q6PEY2+Q13885+Q9BVA1+Q9BUF5). Nature of the series: Inhibition of tubulin polymerization (unknown origin) at 10 uM measured for 20 mins in presence of GTP by spectrophotometry analysis relative to control. The class given is protein-complex assay.
The nature of series [2]: Antiproliferative activity against human HEK293 cells assessed as cell growth inhibition incubated for 48 hrs by MTT assay. The class given is toxicity, cell-based.
Series [3] deals with T1, Tubulin (Homo sapiens). As to the kind of experiment: Inhibition of tubulin polymerization (unknown origin) at 10 uM measured for 20 mins in presence of GTP by spectrophotometry analysis. The class given is protein-complex assay.

Activity calls are given as the source filed them. The rule behind the calls is not given here.

`COc1cc(Cc2nnc3n2N=C(c2cccs2)CS3)cc(OC)c1OC`: the IC50 (usually the concentration at which inhibition is half-maximal) with HT-29 was more than 50 µM. Consider `COc1cc(Cc2nnc3n2N=C(c2ccccc2F)CS3)cc(OC)c1OC`, for which, in the series on HT-29, the IC50 was 44.6 µM. Take `COc1ccc(C2=Nn3c(COc4cc(OC)c(OC)c(OC)c4)nnc3SC2)cc1F`: the IC50 in the series with HT-29 was more than 50 µM.

Turning to `COc1ccc(/C=C\c2cc(OC)c(OC)c(OC)c2)cc1O` [COMBRETASTATIN A4], the values for the IC50 in the series on MDA-MB-231, with HT-29 and in the series on HeLa were 0.077 µM, 1.18 µM and 0.043 µM, respectively. Regarding `COc1cc(OCc2nnc3n2N=C(c2ccc(N(C)C)cc2)CS3)cc(OC)c1OC`, the IC50 with A549 was more than 50 µM; in the series with MDA-MB-231, 9.73 µM; in the series on HT-29, 0.41 µM; in the series on HeLa it was 2.2 µM. Also, the inhibition (usually the share of the control response that was lost under treatment) at Tubulin (Homo sapiens) [1] came to 12%. Besides, in series [2], the IC50 at 48 h was more than 100 µM. On to `COc1ccc(C2=Nn3c(Cc4cc(OC)c(OC)c(OC)c4)nnc3SC2)cc1O`, for which the IC50 with HT-29 is 9.69 µM.

Turning to `COc1ccc(C2=Nn3c(Cc4cc(OC)c(OC)c(OC)c4)nnc3SC2)cc1[N+](=O)[O-]`, the IC50 with HT-29 amounted to 49.2 µM.

Turning to `COc1ccc(C2=Nn3c(COc4cc(OC)c(OC)c(OC)c4)nnc3SC2)cc1O`, the IC50 in the series with HT-29 came out at 36.4 µM. On to `COc1cc(Cc2nnc3n2N=C(c2ccccc2)CS3)cc(OC)c1OC`, for which the IC50 in the series with HT-29 was more than 50 µM. Take `COc1cc(Cc2nnc3n2N=C(c2ccc(Cl)cc2)CS3)cc(OC)c1OC`: the IC50 was 5.77 µM in the series on A549, 4.63 µM in the series on MDA-MB-231, 1.02 µM in the series with HT-29 and 1.33 µM in the series with HeLa. For the same compound, the inhibition on Tubulin (Homo sapiens) [1] came out at 30%. For the same compound, in series [2], the IC50 at 48 h was more than 100 µM. Turning to `COc1cc(Cc2nnc3n2N=C(c2ccc(-c4ccccc4)cc2)CS3)cc(OC)c1OC`, in the series with HT-29, the 50% inhibitory concentration (IC50) is more than 50 µM. Take `COc1cc(OCc2nnc3n2N=C(c2ccc(Cl)c(Cl)c2)CS3)cc(OC)c1OC`: the concentration for half-maximal inhibition (IC50) in the series on HT-29 stood at 48.1 µM. On the same count and under the same terms, the figure for `COc1cc(Cc2nnc3n2N=C(c2ccc(C(F)(F)F)cc2)CS3)cc(OC)c1OC` is 5.03 µM. For the compound `COc1cc(Cc2nnc3n2N=C(c2ccc(N(C)C)cc2)CS3)cc(OC)c1OC`, the IC50 in the series on HT-29 amounted to 35.2 µM.

Regarding `COc1ccc(C2=Nn3c(COc4cc(OC)c(OC)c(OC)c4)nnc3SC2)cc1OC(C)=O`, the IC50 in the series with HT-29 was 26.2 µM. On to `COc1cc(OCc2nnc3n2N=C(c2ccc(C(F)(F)F)cc2)CS3)cc(OC)c1OC`, for which the IC50 with HT-29 was more than 50 µM.

Turning to `CC(=O)O[C@H]1C(=O)[C@@]2(C)[C@H]([C@H](OC(=O)c3ccccc3)[C@]3(O)C[C@H](OC(=O)[C@H](O)[C@@H](NC(=O)c4ccccc4)c4ccccc4)C(C)=C1C3(C)C)[C@]1(OC(C)=O)CO[C@@H]1C[C@@H]2O`, the inhibition result on Tubulin (Homo sapiens) [3] is “inactive”.

As to `COc1cc(Cc2nnc3n2N=C(c2ccc(F)cc2)CS3)cc(OC)c1OC`, the IC50 with HT-29 was more than 50 µM.

Regarding `COc1ccc(C2=Nn3c(COc4cc(OC)c(OC)c(OC)c4)nnc3SC2)cc1[N+](=O)[O-]`, the half-inhibitory concentration (IC50) in the series with HT-29 was more than 50 µM.

In the case of `COc1ccc(Cc2nnc(SCC(=O)c3ccc(C)cc3)n2N)c(OC)c1OC`, the IC50 in the series on A549 was 11.8 µM; with MDA-MB-231 it was more than 50 µM; in the series with HT-29 it was 0.62 µM; in the series with HeLa it was 9.02 µM. In addition, the IC50 at 48 h in series [2] is more than 100 µM. In the case of `COc1ccc(C2=Nn3c(Cc4cc(OC)c(OC)c(OC)c4)nnc3SC2)cc1N`, the IC50 with HT-29 was more than 50 µM. For the compound `COc1cc(Cc2nnc3n2N=C(c2ccc(Br)cc2)CS3)cc(OC)c1OC`, the IC50 in the series with HT-29 was found to be 43.6 µM.

On to `COc1cc(OCc2nnc3n2N=C(c2ccc(N)cc2)CS3)cc(OC)c1OC`, for which, in the series with HT-29, the IC50 is more than 50 µM. Turning to `COc1cccc(C2=Nn3c(Cc4cc(OC)c(OC)c(OC)c4)nnc3SC2)c1`, the half-maximal inhibitory concentration (IC50) with HT-29 is 32 µM. For the compound `COc1ccc(C2=Nn3c(Cc4cc(OC)c(OC)c(OC)c4)nnc3SC2)cc1`, in the series on HT-29, the IC50 turned out to be 42.8 µM. With `COc1cc(OCc2nnc3n2N=C(c2ccc(C)cc2)CS3)cc(OC)c1OC`, the IC50 was 30.6 µM in the series with A549, 12.8 µM in the series with MDA-MB-231, 0.46 µM with HT-29 and more than 50 µM in the series with HeLa. For the same compound, on Tubulin (Homo sapiens) [1], the inhibition came out at 11%. Further, the IC50 at 48 h in series [2] is more than 100 µM.

Consider `COc1ccc(C2=Nn3c(COc4cc(OC)c(OC)c(OC)c4)nnc3SC2)cc1N`, for which the IC50 with HT-29 was determined as 4.93 µM. With `COc1ccc(C2=Nn3c(COc4cc(OC)c(OC)c(OC)c4)nnc3SC2)cc1OC`, the IC50 with HT-29 is more than 50 µM. `COc1cc(OCc2nnc3n2N=C(c2ccc(SC)cc2)CS3)cc(OC)c1OC`: the IC50 in the series on HT-29 is more than 50 µM. Same read-out and setting: the figure for `COc1cc(Cc2nnc3n2N=C(c2ccc([N+](=O)[O-])cc2)CS3)cc(OC)c1OC` is more than 50 µM.
